{
  "source": "paper PMC3966885",
  "about": "“F9 Fimbriae of Uropathogenic Escherichia coli Are Expressed at Low Temperature and Recognise Galβ1-3GlcNAc-Containing Glycans” (PLoS ONE, 2014)",
  "biological_target": "T1, F9 fimbriae (F9 adhesin) (Escherichia coli, UniProt A0A0H2V7F6)",
  "T1 construct": "gene ydeQ; whole F9 fimbriae (six-gene operon c1931-c1936, plasmid pF9, ara promoter) over-expressed on GFP-labelled E. coli K-12 MG1655fim (MS428); mature adhesin 280 aa, N-terminal lectin domain 160 aa",
  "T1 sequence (A0A0H2V7F6 entry or part of it)": "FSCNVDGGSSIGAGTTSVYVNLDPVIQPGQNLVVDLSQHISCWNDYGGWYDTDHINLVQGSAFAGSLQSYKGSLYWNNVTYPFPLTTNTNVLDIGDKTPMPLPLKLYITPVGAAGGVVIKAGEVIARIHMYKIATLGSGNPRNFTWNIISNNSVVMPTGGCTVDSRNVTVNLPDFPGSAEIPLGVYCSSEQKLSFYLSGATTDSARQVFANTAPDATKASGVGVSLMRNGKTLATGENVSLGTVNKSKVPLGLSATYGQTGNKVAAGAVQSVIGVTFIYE",
  "assay": "glycan array with whole GFP-labelled F9 over-expressing E. coli",
  "format": "cell-based",
  "details": "glycan printed on super epoxy slide; PBS with 2 mM MgCl2 and CaCl2, room temperature; also used free at 50 μM as competitor",
  "data": [
    {"smiles": "CC(=O)N[C@H]1[C@H](O[C@H]2[C@@H](O)[C@@H](CO)O[C@@H](O[C@H]3[C@H](O)[C@@H](O)C(O)O[C@@H]3CO)[C@@H]2O)O[C@H](CO)[C@@H](O)[C@@H]1O[C@@H]1O[C@H](CO)[C@H](O)[C@H](O)[C@H]1O", "note": "(stereo partly shown) [lacto-N-tetraose, Galβ1-3GlcNAcβ1-3Galβ1-4Glc]", "values": [
      {"measurement": "glycan array with whole GFP-labelled F9 over-expressing E. coli", "result": "Of the glycans that were bound by F9 fimbriae, lacto-N-tetraose displayed the highest affinity"}
    ]}
  ]
}
